The source of these data is PMC12441861, “Next-Generation Lipid Prodrugs Orally Deliver Tenofovir via Enhanced Chylomicron Incorporation” (ACS Pharmacology & Translational Science, 2025).

One data set is described as follows: Cytotoxicity, MTT assay. To be noted: human, TZM-bl cells.
Data set [1] is described as follows: Metabolic stability in human liver microsomes. It counts as in vitro ADME. To be noted: pH 7.4, read-out: Metabolic Stability HLM t1/2. On the procedure: Assays employed human liver microsomes (HLMs, 20 mg/mL) from Xenotech. A 10 mM NADPH stock was prepared in deionized H2O, and test compounds were dissolved in 100% MeOH to a final concentration of 10 mM. The stock solutions were diluted to 500 μM in 100 mM potassium phosphate buffer (pH 7.4), keeping the final MeOH concentration below 0.2%. Reaction mixtures were prepared by combining 928 μL phosphate buffer, 55 μL liver microsomes, and the test compound solution to a final concentration of 3 μM. Verapamil was used as a positive control. The reactions were initiated with the addition of 110 μL of 10 mM NADPH. Aliquots were taken in duplicate at 0, 5, 10, 15, and 30 min, quenched with 100 μL of cold MeOH containing 2 μM internal standard (d 5-7-ethoxy coumarin), and centrifuged at 12,000 RCF for 5 min. The supernatants were then transferred to LC-MS vials for analysis. The average of each duplicate was normalized to the 0 min time point, representing 100% remaining (0% metabolism).

The subject of data set [2] is Caco-2 cell total membrane. The experiment in a line: Drug in Caco-2 total membrane fraction versus CM fraction. It counts as in vitro ADME, human. The text has this:
Having completed this initial prodrug screening, we next sought to evaluate their ability to incorporate into CMs in vitro. For a lysoglycerolipid prodrug (e.g., TXL and BCV) to be packaged into CMs, it must first be transported into intestinal enterocytes, like Caco-2 cells, by intercalating into the outer leaflet of the plasma membrane before flipping (either actively or passively) to the inner leaflet. Subsequent membrane desorption facilitates intraenterocyte diffusion to the ER and Golgi, where CM are produced. Accordingly, we hypothesized that, even though high lipophilicity should drive prodrug association with CMs, these low hydrophilicity compounds first need to get through the plasma membrane, which could create a kinetic barrier to CM incorporation. […] Proceeding with the CM production and isolation assay as described (Scheme ), cells were harvested in parallel, and the total membrane fraction was separated from other cellular components via centrifugation through a specialized filter provided with the Minute Plasma Membrane Protein Isolation and Cell Fractionation Kit from Invent Biotechnologies (cat No. SM-005). […]
Total membrane fractionation was performed using a Minute Plasma Membrane Protein Isolation and Cell Fractionation Kit from Invent Biotechnologies (cat No. SM-005). […] The clear supernatant was collected and analyzed using LC-MS/MS.

A short description of data set [3]: Mouse oral PK and tissue distribution, fed state. It counts as in vivo. To be noted: single oral dose 10 mg/kg, fed mice. The source says:
Given the increased packaging of the CF3-modified lipids into CMs compared to their ω-unmodified congeners, we selected these compounds for PK studies in mice. We hypothesized that, following oral administration, our modified prodrugs would favor CM-mediated transport into the lymphatics over absorption into mesenteric veins feeding into the portal system. By circumventing direct transport to the liver, these prodrugs are expected to achieve elevated levels in the lung relative to the liver, as lymph empties into the jugular venous angle and mixes with blood en route to the pulmonary arteries (Figure ). For all mouse PK experiments, prodrugs were formulated in a 9:1 mixture of olive oil and ethanol, then administered to male C57BL/6 mice via oral gavage at a dose of 10 mg/kg. Organs (liver, lung, and plasma) were harvested at 1, 2, 4, 8, and 18 h postdose, per the protocol described by our groups previously. Concentrations of prodrug were quantified using LC-MS/MS after tissue homogenization, extraction, and sample preparation.
The compounds TXL, 15a, 15b, 21a, 21b, and a vehicle control were prepared at a concentration of 1 mg/mL in a 90:10 solution of olive oil (Sigma-Aldrich, cat. No. O1514) and 190-proof ethanol. The dosing for each mouse was calculated based on individual body weights to achieve a final dose of 10 mg/kg. For example, a 20 g mouse would receive 200 μL of the 1 mg/mL drug formulation, while a 25 g mouse would receive 250 μL.
In accordance with the American Chemical Society Guidelines to Publication of Chemical Research, we affirm the use of standard ethical practices when housing and handling research animals, as ensured by the Emory University’s Institutional Animal Care and Use Committee (IACUC) and the Division of Animal Resources (DAR) through a rigorous protocol review, amendment, and approval process. A total of 220 C57BL6/J male mice (aged 11–12 weeks, weight, 22–30 g) were used for these studies. Each mouse was weighed, recorded, and ear-clipped for identification. The dosing for each mouse was calculated based on individual body weights to achieve a final dose of 10 mg/kg. Animals were anesthetized using isoflurane gas before receiving a single dose of drug prepared as described above using a 22-gauge gavage needle attached to a calibrated syringe.
Time points for tissue collection were 1, 2, 4, 8, and 18 h for unfasted mice, and 1, 2, 4, 8, and 24 h for fasted mice. At each time point, the mice (n = 4 per compound per time point) were anesthetized using isoflurane and subjected to cardiac puncture for blood collection into EDTA-coated tubes. The collected blood samples were immediately placed on ice before the mice were humanely euthanized via cervical dislocation. Brain, liver, lungs, and kidneys were harvested, rinsed in PBS, and placed in prelabeled tubes. Tissues were flash-frozen in liquid nitrogen then transferred to dry ice for storage.
Blood samples were collected into EDTA-coated tubes and centrifuged at 400 RCF for 10 min at 4 °C to separate plasma from the cellular components. The plasma layer was carefully pipetted off and stored in separate prelabeled and preweighed tubes. All tissues were stored at −80 °C until time for processing.
Tissues were weighed (∼50 mg) into homogenization tubes and ACN containing a 10 μM ITSD was added to achieve a final solvent-to-tissue ratio of 4:1. Homogenization beads were added, and the tissues were processed (Biotage Lysera, part no. 19–060) using two 20 s pulses with a 10 s interval period. Homogenate was centrifuged at maximum speed for 1 h, supernatant collected and analyzed via LC-MS using the method described previously. For plasma samples, a 50 μL aliquot was added 200 μL of ACN containing ITSD. The mixture was vortexed thoroughly and then centrifuged to precipitate proteins, with the supernatant collected and analyzed via LC-MS. […]

Data set [4] is described as follows: Cytotoxicity, ATP luminescence (Cell Titer Glow) assay. To be noted: human, TZM-bl cells.
Description: (§1) To measure cytotoxicity, HeLa-derived TZM-bl cells , were treated with serial dilutions of each drug, and viability was assessed after 48 h. Two methods were used: an ATP luminescence assay, which measures cellular ATP levels as an indicator of metabolic activity (compounds 8a–d), and an MTT assay, which evaluates cell viability via mitochondrial enzymatic activity (compounds 15b, 21a, and 21b).
(§2) The TZM-bl cell line (BEI Resources, ARP-8129) was used to evaluate both cell viability and HIV pseudovirus infectivity reduction. Cytotoxicity in this cell line was measured via two methods. The first method, an ATP luminescence assay, was used for compounds 15a, 15b, 21a, and 21b as such: 6000 TZM-bl cells per well were seeded in a 96-well plate and incubated at 37 °C with 5% CO2 for 24 h. Compounds were prepared as serial dilutions (final concentrations of 1, 0.2, 0.04, 0.008, and 0.0016 μM) in complete DMEM with DEAE-Dextran at 40 μg/mL to mimic HIV infectivity conditions. Solutions were added to the cells and incubated for another 48 h. Viability was assessed using the Promega Cell Titer Glow (CTG) Assay (cat No. G9242) by adding a 50% PBS-CTG solution to each well and measuring luminescence, which correlates with ATP levels, on an Agilent BioTek Synergy HT reader. Cytotoxicity of compounds 8a–d was determined using a colorimetric assay based the conversion of MTT (3-(4,5-dimethylthiazol-2-yl)-2,5-diphenyltetrazolium bromide) to formazan as described previously. TZM-bl cells were plated into 96-well tissue culture plates 1 day prior to performing the MTT assay. A series of 10 3-fold dilutions of each compound was performed from a starting concentration of 10 mM and each dilution was tested for a reduction in cell viability according to the manufacturer’s instructions (CyQuant MTT Cell Viability Assay, ThermoFisher, V13154). Wells containing TZM-bl cells with media only were used as a control. Briefly, serial dilutions of each test compound were added to the plated TZM-bl cells. At 48 h, the media was removed and replaced with 100 mL of fresh culture medium. 10 mL of 12 mM MTT solution was added to each well and incubated at 37 °C for 4 h. 85 mL of supernatant was then removed from each well and replaced with 50 mL of DMSO. Following a 10 min incubation at 37 °C, the absorbance of each well was determined at 540 nm using a Biotek Synergy Neo2 multimode reader and Gen5 v3.02 software.
The nature of data set [5]: Metabolic stability in mouse liver microsomes. It counts as in vitro ADME. The settings on record: pH 7.4, read-out: Metabolic Stability MLM t1/2.
On the set-up of data set [6]: method as in Hostetler 2007. To be noted: single oral dose, prodrug in lung and liver over 72 h; ref Hostetler 2007; cited from earlier work.
For data set [7] the following is noted: ref Hostetler 2007; cited from earlier work.
For data set [8] the following is noted: parent Cidofovir; ref Hostetler 2007; cited from earlier work.

Like-named read-outs stand apart in the source and are kept apart here.

Description for Cytotoxicity, MTT assay: as §1, §2

The molecule `CCCCCCCCCCCCCCCCCCOC[C@H](COP(=O)(O)CO[C@H](C)Cn1cnc2c(N)ncnc21)OCc1ccccc1` [8d, Ammonium[(1R)-2-(6-aminopurin-9-yl)-1-methyl-ethoxy]methyl-[(2R)-2-benzyloxy-3-octadecoxy-propoxy]phosphinate] returned a CC50 at 48 h in “Cytotoxicity, MTT assay” greater than 10 µM. In addition, the half-life at 3 µM in data set [1] is greater than 2 h. The “membrane concentration compared with TXL” value in data set [2] (8 h, n = 3) is “significantly greater concentrations in the membrane than TXL”. In addition, the “drug in membrane fraction” value in data set [2] (20 h) is recorded as “undetectable”.

Regarding `C[C@H](Cn1cnc2c(N)ncnc21)OCP(=O)(O)OCCCOCCCCCCCCCCCCCCCCCC(F)(F)F` [15b, Ammonium[(1R)-2-(6-aminopurin-9-yl)-1-methyl-ethoxy]methyl-[3-(18,18,18-trifluorooctadecoxy)propoxy]phosphinate], the Tmax came out at 4 h in data set [3] (male, C57BL/6, mouse, liver, read-out: Liver Tmax); 8 h in [3] (male, C57BL/6, mouse, lung, read-out: Lung Tmax); 4 h in [3] (male, C57BL/6, mouse, plasma, read-out: Plasma Tmax). Further, the Cmax in data set [3] (male, C57BL/6, mouse, plasma) was found to be 102 ng/mL. The AUC(0-t) in data set [3] (male, C57BL/6, mouse, plasma, read-out: Plasma AUC0-18h) worked out at 1010 ng·h/mL. For the same molecule, the “Liver AUC0-18h” value in data set [3] is reported as 133,000 h*ng/g. Also, the “Liver Cmax” value in data set [3] is on record as 13,400 ng/g. The “Lung AUC0-18h” value in data set [3] is on record as 7,120 h*ng/g. For the same molecule, in data set [3], the “Lung Cmax” value is recorded as 585 ng/g. The same molecule yielded a CC50 at 48 h in data set [4] greater than 1 µM. The half-life at 3 µM in [1] was greater than 2 h; in data set [5], 1.52 h.

On to `CCCCCCCCCCCCCCCCOCCCOP(=O)(O)CO[C@H](CO)Cn1ccc(N)nc1=O` [BCV, brincidofovir], for which the “lung/liver AUC0–72h” value in [6] is 0.04.

With `CCCCCCCCCCCCCCCCCCOCC(COP(=O)(O)COC(CO)Cn1ccc(N)nc1=O)OCc1ccccc1` (centres unmarked) [ODBG-CDV, 1-O-octadecyl-2-O-benzyl-sn-glycero-3-cidofovir], the “increase in lung delivery compared to liver” value in data set [7] is given as 13-fold increase in lung delivery compared to liver. Moreover, in data set [8], the “Δ Oral Availability (% versus Parent)” value is listed as 32%. Moreover, the “lung/liver AUC0–72h” value in data set [6] is listed as 2.05.
